Literature values, collected in article PMC12042267, “Expanding the Family of Monosubstituted 15-Membered Pyridine-Based Macrocyclic Ligands for Mn(II) Complexation in the Context of MRI” (Inorganic Chemistry, 2025).
Read-outs that look alike come from different tables or passages of the source.

Key:
[1] = cited from earlier work
[2] = cited from earlier work; remark: listed apart in the source
[3] = cited from earlier work; for r1p298: 298 K and 0.47 T ref 21; for r1 (relaxivity): 20 MHz, 0.47 T ref 28
[4] = Mn(II) complex, cited from earlier work; for dissociation half-life t1/2: calculated for pH 7.4
[5] = Ca(II), cited from earlier work
[6] = Zn(II), cited from earlier work
[7] = Cu(II), cited from earlier work
[8] = cited from earlier work; remark: listed apart in the source
[9] = cited from earlier work; remark: listed apart in the source
[10] = Mn(II) complex, cited from earlier work
[11] = 0.15 NaCl and 2 mM concentration ref 21, 58

## O.O=C([O-])CN1CCNCCN(CC(=O)[O-])Cc2cccc(n2)C1.[Mn+2] [Mn(3,9-PC2A)]
[1]
  kex^298: 12.6 ± 1.2 10^7 s^–1
  ΔH^‡: 37.5 ± 2.4 kJ mol^–1
[2]; [11]
  Eox: +838 mV
[3]
  r1p298: 2.91 mM^–1 s^–1

## O=C(O)CN1CCOCCOCCNCc2cccc(n2)C1 [L1]
[4]; Zn(II) transmetalation ref 30
  k0: (4.1 ± 0.3) × 10^–3 s^–1
  k1: 1691 ± 41 M^–1 s^–1
[4]; Zn(II) ref 30
  dissociation half-life t1/2: 0.0467 h
[5]; I = 0.15 M NaCl, 25 °C ref 30
  log KHML: 6.37
  log KML: 5.51
[6]; I = 0.15 M NaCl, 25 °C ref 30
  log KHML: 2.80
  log KML: 13.12
[7]; I = 0.15 M NaCl, 25 °C ref 30
  log KHML: 2.67
  log KML: 15.86
  log KML(OH): -9.7
[8]; I = 0.15 M NaCl, 25 °C ref 30
  log K1^H: 8.86
  log K2^H: 8.03
  log K3^H: 1.9
[9]; Mn(II), I = 0.15 M NaCl, 25 °C ref 30
  log KML: 11.06
[9]; Mn(II), I = 0.15 M NaCl, 25 °C, log KMnHL in Table 5 ref 30
  log KHML: 3.82
[9]; pH 7.4, cMn = clig = 10^–5 M ref 30
  pMn: 6.95

## c1cc2nc(c1)CNCCNCCNCCNC2 [15-pyN5]
[4]; Zn(II) transmetalation ref 28
  k1: 423 M^–1 s^–1
  k2: 1.0 × 10^7 M^–2 s^–1
  k4: 1.7 × 10^4 M^–2 s^–1
[4]; Zn(II) ref 28
  dissociation half-life t1/2: 11.0 h
[5]; 0.1 M NMe4Cl ref 28
  log KML: 2.97
[6]; 0.1 M NMe4Cl ref 28
  log KHML: 2.45
  log KML: 16.27
  log KML(OH): -11.18
[7]; 0.1 M NMe4Cl ref 28
  log KML: 21.84
  log KML(OH): -12.30
[8]; 0.1 M NMe4Cl ref 28
  log K1^H: 9.40
  log K2^H: 8.54
  log K3^H: 5.28
[8]; 0.1 NaClO4 ref 40
  log K1^H: 9.43
  log K2^H: 8.80
  log K3^H: 5.28
[8]; 0.1 NaClO4 ref 41
  log K1^H: 9.11
  log K2^H: 8.82
  log K3^H: 5.27
[9]; Mn(II), 0.1 M NMe4Cl ref 28
  log KML: 10.89
  log KML(OH): -11.52
[9]; Mn(II), 0.1 M NMe4Cl, log KMnHL in Table 5 ref 28
  log KHML: 4.27
[9]; Mn(II), 0.1 M NaClO4 ref 40
  log KHML: 4.20
  log KML: 11.64
[9]; Mn(II), 0.1 M NaClO4 ref 41
  log KHML: 4.51
  log KML: 11.12
[9]; pH 7.4, cMn = clig = 10^–5 M ref 28
  pMn: 6.37
[9]; pH 7.4, cMn = clig = 10^–5 M ref 40
  pMn: 6.60
[9]; pH 7.4, cMn = clig = 10^–5 M ref 41
  pMn: 6.59

## O.O.[Mn+2].c1cc2nc(c1)CNCCOCCOCCNC2 [Mn(15-pyN3O2)]
[1]
  AO/ℏ: 38.6 10^6 rad s^–1
  ErH: 16.1 kJ mol^–1
  kex^298: 0.38 10^7 s^–1
  ΔH^‡: 35.3 kJ mol^–1
  ΔS^‡: –1.0 J mol^–1K^–1
  Δ^2: 6.6 10^18 s^–2
  τrH^298: 40.3 ps
  τv^298: 3.3 ps
[2]
  Eox: 912 mV
[3]; 25 °C
  r1 (relaxivity): 4.48 mM^–1 s^–1
[3]; 37 °C
  r1 (relaxivity): 3.61 mM^–1 s^–1

## Mn(EDTA)
[2]; [11]
  Eox: +769 mV

## O.O=C([O-])CN1CCNCc2cccc(n2)CN(CC(=O)[O-])CC1.[Mn+2] [Mn(3,6-PC2A)]
[1]
  kex^298: 14.0 ± 2.5 10^7 s^–1
  ΔH^‡: 38.2 ± 3.9 kJ mol^–1
[2]; [11]
  Eox: +862 mV
[3]
  r1p298: 2.72 mM^–1 s^–1

## O=C(O)CN1CCNCc2cccc(n2)CNCC1 [PC1A]
[4]; Zn(II) transmetalation ref 20
  k1: 2020 ± 40 M^–1 s^–1
  k2: (8.0 ± 0.3) × 10^7 M^–2 s^–1
[4]; Zn(II) ref 20
  dissociation half-life t1/2: 2.4 h
[5]; 0.1 M NMe4Cl ref 20
  log KHML: 7.39
  log KML: 6.04
[6]; 0.1 M NMe4Cl ref 20
  log KHML: 3.03
  log KML: 17.01
[7]; 0.1 M NMe4Cl ref 20
  log KHML: 2.09
  log KML: 18.62
[8]; 0.1 M NMe4Cl ref 20
  log K1^H: 10.47
  log K2^H: 8.71
  log K3^H: 2.79
[9]; Mn(II), 0.1 M NMe4Cl ref 20
  log KML: 11.54
[9]; Mn(II), 0.1 M NMe4Cl, log KMnHL in Table 5 ref 20
  log KHML: 4.95
[9]; pH 7.4, cMn = clig = 10^–5 M ref 20
  pMn: 8.10

## O=C(O)CN1CCN(Cc2ccc(-c3ccccc3)cc2)CCN(CC(=O)O)Cc2cccc(n2)C1 [PC2A-BP]
[5]; I = 0.15 M NaCl, 25 °C ref 23
  log KML: 7.94
[10]; Cu(II) transmetalation ref 23
  k1: 16.9 ± 0.2 M^–1 s^–1
[10]; calculated for pH 7.4, Cu(II) ref 23
  dissociation half-life t1/2: 286.2 h
[6]; I = 0.15 M NaCl, 25 °C ref 23
  log KHML: 1.71
  log KML: 18.05
[7]; I = 0.15 M NaCl, 25 °C ref 23
  log KHML: 1.04
  log KML: 22.30
[8]; I = 0.15 M NaCl, 25 °C ref 23
  log K1^H: 10.45
  log K2^H: 6.93
  log K3^H: 2.36
  log K4^H: 1.64
[9]; Mn(II), I = 0.15 M NaCl, 25 °C ref 23
  log KML: 14.86
[9]; pH 7.4, cMn = clig = 10^–5 M ref 23
  pMn: 8.35
